These results are taken from US8691865B2 (AbbVie Inc., priority 2008, dated 2014).

In the first assay the target is human Cav2.2 (Homo sapiens, UniProt Q00975). Briefly: Assessment of calcium channel activity using FLIPR (Ca2+ influx in IMR32 cells). It counts as cell-based.
Chain of human Cav2.2 (Q00975 whole entry): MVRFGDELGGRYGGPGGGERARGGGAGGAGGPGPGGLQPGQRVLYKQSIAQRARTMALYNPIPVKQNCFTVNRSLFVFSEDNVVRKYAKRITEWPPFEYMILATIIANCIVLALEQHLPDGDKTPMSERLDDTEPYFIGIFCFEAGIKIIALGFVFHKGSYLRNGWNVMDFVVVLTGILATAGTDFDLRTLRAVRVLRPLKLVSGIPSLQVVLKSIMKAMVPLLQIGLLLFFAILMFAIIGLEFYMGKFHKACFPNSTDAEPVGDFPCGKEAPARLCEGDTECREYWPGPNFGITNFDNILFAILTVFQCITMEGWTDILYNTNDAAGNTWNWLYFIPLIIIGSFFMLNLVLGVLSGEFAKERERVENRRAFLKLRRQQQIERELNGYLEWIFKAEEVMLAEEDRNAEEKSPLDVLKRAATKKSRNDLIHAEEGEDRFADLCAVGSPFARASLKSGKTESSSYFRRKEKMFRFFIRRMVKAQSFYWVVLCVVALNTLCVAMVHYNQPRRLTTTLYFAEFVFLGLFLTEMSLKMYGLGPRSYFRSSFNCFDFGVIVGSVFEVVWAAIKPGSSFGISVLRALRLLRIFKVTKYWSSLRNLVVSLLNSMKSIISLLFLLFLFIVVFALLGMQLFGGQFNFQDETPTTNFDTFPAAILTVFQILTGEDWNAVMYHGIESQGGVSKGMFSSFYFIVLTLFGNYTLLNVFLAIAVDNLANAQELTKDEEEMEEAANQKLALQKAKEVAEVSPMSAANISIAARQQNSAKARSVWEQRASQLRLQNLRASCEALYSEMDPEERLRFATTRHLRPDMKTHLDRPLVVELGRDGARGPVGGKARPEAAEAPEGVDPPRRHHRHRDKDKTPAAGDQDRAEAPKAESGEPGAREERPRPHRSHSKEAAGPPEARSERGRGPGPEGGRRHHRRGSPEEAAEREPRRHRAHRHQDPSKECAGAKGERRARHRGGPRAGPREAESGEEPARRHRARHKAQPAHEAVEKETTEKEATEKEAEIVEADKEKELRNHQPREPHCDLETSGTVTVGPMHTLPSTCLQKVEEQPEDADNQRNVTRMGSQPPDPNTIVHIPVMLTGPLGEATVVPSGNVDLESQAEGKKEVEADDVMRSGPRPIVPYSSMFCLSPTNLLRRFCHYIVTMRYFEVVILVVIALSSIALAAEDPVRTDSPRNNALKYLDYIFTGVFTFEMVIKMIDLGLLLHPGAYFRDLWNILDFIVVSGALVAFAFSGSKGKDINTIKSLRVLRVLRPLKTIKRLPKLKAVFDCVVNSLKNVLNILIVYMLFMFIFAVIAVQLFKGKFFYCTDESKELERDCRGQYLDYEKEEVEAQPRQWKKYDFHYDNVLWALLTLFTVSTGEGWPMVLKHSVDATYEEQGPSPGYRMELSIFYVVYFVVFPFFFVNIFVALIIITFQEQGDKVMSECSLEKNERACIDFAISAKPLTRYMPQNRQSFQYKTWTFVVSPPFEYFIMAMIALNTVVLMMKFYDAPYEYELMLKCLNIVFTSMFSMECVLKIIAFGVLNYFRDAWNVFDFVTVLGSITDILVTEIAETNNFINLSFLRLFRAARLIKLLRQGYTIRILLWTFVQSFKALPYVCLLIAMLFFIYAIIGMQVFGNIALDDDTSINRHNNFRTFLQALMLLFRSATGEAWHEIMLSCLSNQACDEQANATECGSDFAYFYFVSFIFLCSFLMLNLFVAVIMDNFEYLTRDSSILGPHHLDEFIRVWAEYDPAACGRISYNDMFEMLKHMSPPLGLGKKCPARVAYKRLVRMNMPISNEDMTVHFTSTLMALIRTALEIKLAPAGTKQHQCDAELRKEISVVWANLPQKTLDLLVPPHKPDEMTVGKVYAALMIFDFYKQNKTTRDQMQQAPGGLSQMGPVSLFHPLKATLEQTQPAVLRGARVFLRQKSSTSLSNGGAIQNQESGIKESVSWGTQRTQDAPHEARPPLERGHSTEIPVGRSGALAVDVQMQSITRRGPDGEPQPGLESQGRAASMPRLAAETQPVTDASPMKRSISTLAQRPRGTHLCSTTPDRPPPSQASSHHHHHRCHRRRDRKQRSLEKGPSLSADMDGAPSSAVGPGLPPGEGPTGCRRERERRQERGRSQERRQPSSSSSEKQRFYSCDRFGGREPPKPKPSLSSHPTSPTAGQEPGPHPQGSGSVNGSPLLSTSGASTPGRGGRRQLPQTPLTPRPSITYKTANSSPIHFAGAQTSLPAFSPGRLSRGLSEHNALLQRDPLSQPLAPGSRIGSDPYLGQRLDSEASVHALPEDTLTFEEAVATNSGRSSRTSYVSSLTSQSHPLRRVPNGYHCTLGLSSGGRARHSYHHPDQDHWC
Chain of human Cav2.2 (P54289 25-956 partner limits assumed): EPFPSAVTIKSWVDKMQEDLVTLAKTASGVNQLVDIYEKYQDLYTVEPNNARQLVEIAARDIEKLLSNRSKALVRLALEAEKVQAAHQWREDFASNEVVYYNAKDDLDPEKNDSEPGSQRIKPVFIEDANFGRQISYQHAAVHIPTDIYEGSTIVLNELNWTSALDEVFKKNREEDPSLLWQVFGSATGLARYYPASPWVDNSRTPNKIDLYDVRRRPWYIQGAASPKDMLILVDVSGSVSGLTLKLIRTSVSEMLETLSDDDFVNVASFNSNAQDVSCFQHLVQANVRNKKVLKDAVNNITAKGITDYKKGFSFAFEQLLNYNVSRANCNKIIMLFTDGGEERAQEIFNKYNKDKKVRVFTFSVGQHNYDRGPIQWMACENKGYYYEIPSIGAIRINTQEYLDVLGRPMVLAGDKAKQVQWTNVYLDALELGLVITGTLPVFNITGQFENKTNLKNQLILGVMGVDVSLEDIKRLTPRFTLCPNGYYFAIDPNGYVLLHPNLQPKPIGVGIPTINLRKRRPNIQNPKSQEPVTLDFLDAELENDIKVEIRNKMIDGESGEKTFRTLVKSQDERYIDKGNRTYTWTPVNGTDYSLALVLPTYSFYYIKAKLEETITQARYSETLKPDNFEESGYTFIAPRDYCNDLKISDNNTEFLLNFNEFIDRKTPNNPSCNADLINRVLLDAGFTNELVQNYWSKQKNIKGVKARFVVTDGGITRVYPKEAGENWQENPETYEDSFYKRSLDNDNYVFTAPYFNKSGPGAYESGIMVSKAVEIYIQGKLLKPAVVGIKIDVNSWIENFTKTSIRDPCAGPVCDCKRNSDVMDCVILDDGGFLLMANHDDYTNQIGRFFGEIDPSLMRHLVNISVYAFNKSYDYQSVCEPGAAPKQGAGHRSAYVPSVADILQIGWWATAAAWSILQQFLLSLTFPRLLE
Chain of human Cav2.2 (P54289 957-1103 partner limits assumed): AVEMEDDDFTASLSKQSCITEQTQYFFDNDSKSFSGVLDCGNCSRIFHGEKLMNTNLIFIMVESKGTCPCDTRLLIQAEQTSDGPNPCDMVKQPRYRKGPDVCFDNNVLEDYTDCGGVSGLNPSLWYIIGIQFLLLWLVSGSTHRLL
Chain of human Cav2.2 (P54284 whole entry partner): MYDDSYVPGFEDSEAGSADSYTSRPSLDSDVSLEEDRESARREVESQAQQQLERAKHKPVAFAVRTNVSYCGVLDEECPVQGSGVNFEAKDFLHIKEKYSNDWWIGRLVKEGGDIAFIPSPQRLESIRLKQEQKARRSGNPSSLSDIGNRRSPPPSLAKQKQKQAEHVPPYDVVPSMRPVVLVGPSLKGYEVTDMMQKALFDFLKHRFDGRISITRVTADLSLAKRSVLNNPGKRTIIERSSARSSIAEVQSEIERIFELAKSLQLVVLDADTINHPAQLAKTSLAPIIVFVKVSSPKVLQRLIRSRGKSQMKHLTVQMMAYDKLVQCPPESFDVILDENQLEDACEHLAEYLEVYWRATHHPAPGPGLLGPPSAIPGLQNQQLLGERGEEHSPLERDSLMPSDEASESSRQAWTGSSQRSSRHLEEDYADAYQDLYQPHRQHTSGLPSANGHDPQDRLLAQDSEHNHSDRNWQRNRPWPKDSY
Conditions: not given
The method, boiled down:
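Human neuroblastoma IMR32 cells were seeded at 1−1.2×10^5 cells/well and cultured 48 h at 37 °C before FLIPR calcium influx measurement. Percent inhibition at each concentration was calculated against the no-inhibitor signal, and IC50 came from sigmoidal dose-response fits.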
Usually IC50 stands for the concentration that inhibits the measured activity by half. As to `O=S(=O)(N[C@H]1CC[C@@H]2CN(c3cccc(C(F)(F)F)n3)C[C@@H]21)c1ccccc1Cl` [Example 701, 2-chloro-N-{(3aR,4S,6aS)-2-[6-(trifluoromethyl)pyridin-2-yl]octahydrocyclopenta[c]pyrrol-4-yl}benzenesulfonamide], the IC50 stood at 4.5 µM.
On the same count and under the same terms, then `CC(C)(C)[C@H](N)C(=O)N[C@H]1CC[C@@H]2CN(Cc3ccccc3)C[C@@H]21` [Example 357, N^1-[(3aR,4S,6aS)-2-benzyloctahydrocyclopenta[c]pyrrol-4-yl]-3-methyl-L-valinamide], with > 30 µM; and `CC(C)C(C(=O)N[C@H]1CC[C@H]2CN(Cc3cccc(C(F)(F)F)c3)C[C@H]21)c1ccccc1` (relative stereo) [Example 122, 3-methyl-2-phenyl-N-{(3aS*,4S*,6aR*)-2-[3-(trifluoromethyl)benzyl]octahydrocyclopenta[c]pyrrol-4-yl}butanamide], with 0.36 µM.
Turning to `Fc1ccc2nc(CN[C@H]3CC[C@@H]4CN(c5cccc(C(F)(F)F)n5)C[C@@H]43)[nH]c2c1` [Example 691, (3aR,4S,6aS)-N-[(6-fluoro-1H-benzimidazol-2-yl)methyl]-2-[6-(trifluoromethyl)pyridin-2-yl]octahydrocyclopenta[c]pyrrol-4-amine], the IC50 turned out to be 0.61 µM.
For the compound `CN[C@@H](CO)C(=O)N[C@H]1CC[C@@H]2CN(c3ccc(C(F)(F)F)cc3)C[C@@H]21` [Example 749, N^2-methyl-N-{(3aR,4S,6aS)-2-[4-(trifluoromethyl)phenyl]octahydrocyclopenta[c]pyrrol-4-yl}-L-serinamide], the IC50 is > 3 µM.
In the case of `CCC[C@H](NC)C(=O)N[C@H]1CC[C@@H]2CN(S(=O)(=O)c3ccc(OC(F)(F)F)cc3)C[C@@H]21` [Example 532, N^2-methyl-N^1-((3aR,4S,6aS)-2-{[4-(trifluoromethoxy)phenyl]sulfonyl}octahydrocyclopenta[c]pyrrol-4-yl)-L-norvalinamide], the IC50 came out at 3.16 µM.
Still for that read-out and setting: next, `O=S(=O)(N[C@@H]1CC[C@@H]2CN(Cc3cccc(C(F)(F)F)c3)C[C@@H]21)c1cccc(C(F)(F)F)c1` [Example 188, 3-(trifluoromethyl)-N-{(3aR,4R,6aS)-2-[3-(trifluoromethyl)benzyl]octahydrocyclopenta[c]pyrrol-4-yl}benzenesulfonamide]: 0.85 µM; `FC(F)(F)c1cccc(N2C[C@H]3CC[C@H](NCc4[nH]c5ccccc5c4Cl)[C@H]3C2)n1` [Example 679, (3aR,4S,6aS)-N-[(3-chloro-1H-indol-2-yl)methyl]-2-[6-(trifluoromethyl)pyridin-2-yl]octahydrocyclopenta[c]pyrrol-4-amine]: 1.62 µM; `O=C(N[C@H]1CC[C@@H]2CN(c3ccccc3C(F)(F)F)C[C@@H]21)[C@@H]1C[C@@H](F)CN1` [Example 622, (4R)-4-fluoro-N-{(3aR,4S,6aS)-2-[2-(trifluoromethyl)phenyl]octahydrocyclopenta[c]pyrrol-4-yl}-L-prolinamide]: 1.69 µM.
With `CC(C)(C)[C@H](N)C(=O)N[C@@H]1CC[C@H]2CN(Cc3ccccc3)C[C@H]21` [Example 356, N^1-[(3aS,4R,6aR)-2-benzyloctahydrocyclopenta[c]pyrrol-4-yl]-3-methyl-L-valinamide], the IC50 was > 30 µM.
For `FC(F)(F)c1cccc(N2C[C@H]3CC[C@H](NCc4cc5cccnc5s4)[C@H]3C2)n1` [Example 727, (3aR,4S,6aS)-N-(thieno[2,3-b]pyridin-2-ylmethyl)-2-[6-(trifluoromethyl)pyridin-2-yl]octahydrocyclopenta[c]pyrrol-4-amine], the half-inhibitory concentration (IC50) was determined as 0.58 µM.
For the compound `Cc1cccc2c(CN[C@H]3CC[C@@H]4CN(c5cccc(C(F)(F)F)n5)C[C@@H]43)c[nH]c12` [Example 671, (3aR,4S,6aS)-N-[(7-methyl-1H-indol-3-yl)methyl]-2-[6-(trifluoromethyl)pyridin-2-yl]octahydrocyclopenta[c]pyrrol-4-amine], the 50% inhibitory concentration (IC50) turned out to be 1.53 µM.
For the compound `Fc1cnc2[nH]cc(CN[C@H]3CC[C@@H]4CN(c5cccc(C(F)(F)F)n5)C[C@@H]43)c2c1` [Example 690, (3aR,4S,6aS)-N-[(5-fluoro-1H-pyrrolo[2,3-b]pyridin-3-yl)methyl]-2-[6-(trifluoromethyl)pyridin-2-yl]octahydrocyclopenta[c]pyrrol-4-amine], the IC50 stood at 0.75 µM.
Still for that read-out and setting: then `FC(F)(F)c1cccc(N2C[C@H]3CC[C@H](NCc4c[nH]nc4-c4cccs4)[C@H]3C2)n1` [Example 669, (3aR,4S,6aS)-N-{[3-(2-thienyl)-1H-pyrazol-4-yl]methyl}-2-[6-(trifluoromethyl)pyridin-2-yl]octahydrocyclopenta[c]pyrrol-4-amine], with 0.8 µM; and `CN[C@@H](CC1CC1)C(=O)N[C@H]1CC[C@@H]2CN(c3ccc(OC(F)(F)F)cc3)C[C@@H]21` [Example 775, 3-cyclopropyl-N^2-methyl-N-{(3aR,4S,6aS)-2-[4-(trifluoromethoxy)phenyl]octahydrocyclopenta[c]pyrrol-4-yl}-L-alaninamide], with 2.77 µM.
Still for that read-out and setting: next, `CCC[C@H](NC(C)C)C(=O)N[C@@H]1CC[C@H]2CN(Cc3ccccc3)C[C@H]21` [Example 495, N^1-[(3aS,4R,6aR)-2-benzyloctahydrocyclopenta[c]pyrrol-4-yl]-N^2-isopropyl-L-norvalinamide]: > 30 µM; `CN[C@@H](CC(C)C)C(=O)N[C@H]1CC[C@@H]2CN(c3cccc(F)c3)C[C@@H]21` [Example 629, N-[(3aR,4S,6aS)-2-(3-fluorophenyl)octahydrocyclopenta[c]pyrrol-4-yl]-N^2-methyl-L-leucinamide]: 4.22 µM; `CC(C)C[C@H](O)C(=O)N[C@H]1CC[C@@H]2CN(c3cccc(C(F)(F)F)n3)C[C@@H]21` [Example 567, (2S)-2-hydroxy-4-methyl-N-{(3aR,4S,6aS)-2-[6-(trifluoromethyl)pyridin-2-yl]octahydrocyclopenta[c]pyrrol-4-yl}pentanamide]: 0.4 µM.
With `O=S(=O)(Cc1ccc(Cl)cc1)N[C@H]1CC[C@@H]2CN(c3cccc(C(F)(F)F)n3)C[C@@H]21` [Example 717, 1-(4-chlorophenyl)-N-{(3aR,4S,6aS)-2-[6-(trifluoromethyl)pyridin-2-yl]octahydrocyclopenta[c]pyrrol-4-yl}methanesulfonamide], the IC50 was determined as 3.54 µM.

The same assay, now with this note: read-out: IC50 (μM) or percent inhibition (* indicates 3 minute incubation, otherwise 60 minute); IC50; 60 minute pre-incubation with compound; IMR32 cells, 80 mM KCl depolarization.
For `CC(C)(C)C[C@H](N)C(=O)N[C@H]1CC[C@@H]2CN(Cc3ccccc3)C[C@@H]21` [Example 361, N^1-[(3aR,4S,6aS)-2-benzyloctahydrocyclopenta[c]pyrrol-4-yl]-4-methyl-L-leucinamide], the IC50 is 24.7 µM.
In the case of `CCC[C@H](NC)C(=O)N[C@H]1CC[C@@H]2CN(S(=O)(=O)c3ccc(C(F)(F)F)cc3)C[C@@H]21` [Example 405, N^2-methyl-N^1-((3aR,4S,6aS)-2-{[4-(trifluoromethyl)phenyl]sulfonyl}octahydrocyclopenta[c]pyrrol-4-yl)-L-norvalinamide], the IC50 is 3.83 µM.
Same read-out and setting: then `CC(C)C[C@H](NS(=O)(=O)C1CC1)C(=O)N[C@H]1CC[C@H]2CN(Cc3cccc(C(F)(F)F)c3)C[C@H]21` [Example 174, N^2-(cyclopropylsulfonyl)-N^1-{(3aS,4S,6aR)-2-[3-(trifluoromethyl)benzyl]octahydrocyclopenta[c]pyrrol-4-yl}-L-leucinamide], with 1.04 µM; and `O=S(=O)(N[C@@H]1CC[C@H]2CN(Cc3cc(C(F)(F)F)cc(C(F)(F)F)c3)C[C@H]21)c1cccc(C(F)(F)F)c1` [Example 192, N-{(3aS,4R,6aR)-2-[3,5-bis(trifluoromethyl)benzyl]octahydrocyclopenta[c]pyrrol-4-yl}-3-(trifluoromethyl)benzenesulfonamide], with 2.27 µM.
Take `CC(C)C[C@@H](C(=O)N[C@H]1CC[C@H]2CN(Cc3cccc(C(F)(F)F)c3)C[C@H]21)N(C)C` [Example 509, N^2,N^2-dimethyl-N^1-{(3aS,4S,6aR)-2-[3-(trifluoromethyl)benzyl]octahydrocyclopenta[c]pyrrol-4-yl}-L-leucinamide]: the half-inhibitory concentration (IC50) amounted to 4.55 µM.
Still for that read-out and setting: then `CC(C)(C)OC(=O)N[C@H](C(=O)N[C@H]1CC[C@@H]2CN(Cc3ccccc3)C[C@@H]21)C(C)(C)C` [Example 225, tert-butyl(S)-1-((3aR,4S,6aS)-2-benzyloctahydrocyclopenta[c]pyrrol-4-ylamino)-3,3-dimethyl-1-oxobutan-2-ylcarbamate], with 9.36 µM.
As for `CC(C)(C)C(C(=O)N[C@@H]1CC[C@H]2CN(Cc3ccccc3)C[C@H]21)c1ccccc1` (stereo partly drawn) [Example 30, N-[(3aS,4R,6aR)-2-benzyloctahydrocyclopenta[c]pyrrol-4-yl]-3,3-dimethyl-2-phenylbutanamide], the IC50 was found to be 1.81 µM.
In the case of `CCC[C@H](NC)C(=O)N[C@@H]1CC[C@H]2CN(S(=O)(=O)c3ccc(F)cc3)C[C@H]21` [Example 403, N^1-{(3aS,4R,6aR)-2-[(4-fluorophenyl)sulfonyl]octahydrocyclopenta[c]pyrrol-4-yl}-N^2-methyl-L-norvalinamide], the IC50 was found to be 8.65 µM.
Still for that read-out and setting: next, `O=C(N[C@H]1CC[C@H]2CN(Cc3ccc(F)c(C(F)(F)F)c3)C[C@H]21)C(C1CCCCC1)C1CCCCC1` [Example 57, 2,2-dicyclohexyl-N-{(3aS,4S,6aR)-2-[4-fluoro-3-(trifluoromethyl)benzyl]octahydrocyclopenta[c]pyrrol-4-yl}acetamide]: 0.29 µM; `CC[C@H](C(=O)N[C@H]1CC[C@H]2CN([C@@H](C)c3ccccc3)C[C@H]21)c1ccccc1` [Example 212, (2S)-2-phenyl-N-{(3aS,4S,6aR)-2-[(1S)-1-phenylethyl]octahydrocyclopenta[c]pyrrol-4-yl}butanamide]: 4.13 µM.
The same measure, in the same setting: next, `CC(C)(C)OC(=O)N1CCCC[C@H]1C(=O)N[C@@H]1CC[C@H]2CN(Cc3ccccc3)C[C@H]21` [Example 231, tert-butyl(2S)-2-({[(3aS,4R,6aR)-2-benzyloctahydrocyclopenta[c]pyrrol-4-yl]amino}carbonyl)piperidine-1-carboxylate]: 6.13 µM.
